Measurements reported in paper PMC10044120, “Potent and selective covalent inhibition of the papain-like protease from SARS-CoV-2” (Nature Communications, 2023).
Like-named read-outs stand apart in the source and are kept apart here.

How the values were obtained:
PLpro from SARS-CoV-2 [1] = molecular target: T1, PLpro from SARS-CoV-2 (Severe acute respiratory syndrome coronavirus 2, UniProt P0DTD1); test: biochemical; assay type: biochemical; conditions: for remaining activity at 0.06 µM: inhibitor 0.06 uM; for remaining activity at 0.2 µM: inhibitor 0.20 uM; for IC50: after 30-min incubation, purified PLpro, Z-RLRGG-AMC substrate
PLpro from SARS-CoV-2 [2] = molecular target: T1, PLpro from SARS-CoV-2; test: biochemical; assay type: biochemical; parameters: mean (kobs plot, Supplementary Figure 6 II): unit: min^-1; conditions: for Time dep. (time-dependent inhibition): fluorogenic peptide assay, varied preincubation time
[3] = tested on: SARS-CoV-2 isolate USA-WA1/2020; conditions: for EC50 (cytopathic effect): SARS-CoV-2-infected Vero E6 cells, 48 h; for inhibition: read-out: cytopathic effect, % cell viability, duplicate wells
Vero E6 cells = conditions: African green monkey, 48 h
in vitro = conditions: African green monkey
[4] = tested on: SARS-CoV-2 isolate USA-WA1/2020; test: microbe, parasite or virus in culture
[5] = Metabolic stability in rat liver microsomes; conditions: Sprague-Dawley
[6] = Metabolic stability in rat liver S9 fraction; conditions: Sprague-Dawley
[7] = Metabolic stability in mouse liver microsomes; conditions: CD-1, mouse
[8] = Metabolic stability in mouse liver S9 fraction; conditions: CD-1, mouse

Q: For `C#CC(=O)NNC(=O)CCc1ccccc1C(=O)N[C@H](C)c1cccc2ccccc12` [Compound 12, (R)-N-(1-(naphthalen-1-yl)ethyl)-2-(3-oxo-3-(2-propioloylhydrazineyl)propyl)benzamide], which remaining activity at 0.06 µM (PLpro from SARS-CoV-2 [1]; 0.5 h) is on record?
A: 75.9%

Q: And the remaining activity at 0.2 µM (PLpro from SARS-CoV-2 [1]; 0.5 h)?
A: 14.8%

Q: What about the remaining activity at 200 µM (PLpro from SARS-CoV-2 [1]; 0.5 h, inhibitor 200.00 uM) of the same compound?
A: 2.39%

Q: What about the IC50 (PLpro from SARS-CoV-2 [1]) of the same compound?
A: 98 nM

Q: And the kinact/KI (PLpro from SARS-CoV-2 [2])?
A: 4100 M⁻¹ s⁻¹

Q: And the remaining activity at 0.2 µM (PLpro from SARS-CoV-2 [2]; 5 min, read-out: PLpro activity after preincubation, inhibitor 0.2 uM, preincubation 5 min)?
A: 80%

Q: What about the remaining activity at 0.5 µM (PLpro from SARS-CoV-2 [2]; 5 min, read-out: PLpro activity after preincubation, inhibitor 0.5 uM, preincubation 5 min) of the same compound?
A: 68.1%

Q: And the remaining activity at 0.6 µM (PLpro from SARS-CoV-2 [2]; 5 min, read-out: PLpro activity after preincubation, inhibitor 0.6 uM, preincubation 5 min)?
A: 59%

Q: And the remaining activity at 0.7 µM (PLpro from SARS-CoV-2 [2]; 5 min, read-out: PLpro activity after preincubation, inhibitor 0.7 uM, preincubation 5 min)?
A: 46.3%

Q: What about the remaining activity at 0.2 µM (PLpro from SARS-CoV-2 [2]; 10 min, read-out: PLpro activity after preincubation, inhibitor 0.2 uM, preincubation 10 min) of the same compound?
A: 69.8%

Q: What about the remaining activity at 0.5 µM (PLpro from SARS-CoV-2 [2]; 10 min, read-out: PLpro activity after preincubation, inhibitor 0.5 uM, preincubation 10 min) of the same compound?
A: 40.2%

Q: What about the remaining activity at 0.6 µM (PLpro from SARS-CoV-2 [2]; 10 min, read-out: PLpro activity after preincubation, inhibitor 0.6 uM, preincubation 10 min) of the same compound?
A: 41.8%

Q: And the remaining activity at 0.7 µM (PLpro from SARS-CoV-2 [2]; 10 min, read-out: PLpro activity after preincubation, inhibitor 0.7 uM, preincubation 10 min)?
A: 29.5%

Q: And the remaining activity at 0.2 µM (PLpro from SARS-CoV-2 [2]; 0.5 h, read-out: PLpro activity after preincubation, inhibitor 0.2 uM, preincubation 30 min)?
A: 87.5%

Q: And the remaining activity at 0.3 µM (PLpro from SARS-CoV-2 [2]; 0.5 h, read-out: PLpro activity after preincubation, inhibitor 0.3 uM, preincubation 30 min)?
A: 71%

Q: What about the remaining activity at 0.5 µM (PLpro from SARS-CoV-2 [2]; 0.5 h, read-out: PLpro activity after preincubation, inhibitor 0.5 uM, preincubation 30 min) of the same compound?
A: 14.4%

Q: What about the remaining activity at 0.7 µM (PLpro from SARS-CoV-2 [2]; 0.5 h, read-out: PLpro activity after preincubation, inhibitor 0.7 uM, preincubation 30 min) of the same compound?
A: 7.89%

Q: What about the remaining activity at 0.2 µM (PLpro from SARS-CoV-2 [2]; 1 h, read-out: PLpro activity after preincubation, inhibitor 0.2 uM, preincubation 60 min) of the same compound?
A: 83.5%

Q: What about the remaining activity at 0.6 µM (PLpro from SARS-CoV-2 [2]; 1 h, read-out: PLpro activity after preincubation, inhibitor 0.6 uM, preincubation 60 min) of the same compound?
A: 2.72%

Q: What about the remaining activity at 0.2 µM (PLpro from SARS-CoV-2 [2]; […], read-out: PLpro activity after preincubation, inhibitor 0.2 uM, preincubation 15 min) of the same compound?
A: 82%

Q: And the remaining activity at 0.2 µM (PLpro from SARS-CoV-2 [2]; […], read-out: PLpro activity after preincubation, inhibitor 0.2 uM, preincubation 45 min)?
A: 75.3%

Q: And the remaining activity at 0.2 µM (PLpro from SARS-CoV-2 [2]; […], read-out: PLpro activity after preincubation, inhibitor 0.2 uM, preincubation 90 min)?
A: 60%

Q: What about the remaining activity at 0.3 µM (PLpro from SARS-CoV-2 [2]; […], read-out: PLpro activity after preincubation, inhibitor 0.3 uM, preincubation 90 min) of the same compound?
A: 15.6%

Q: And the remaining activity at 0.5 µM (PLpro from SARS-CoV-2 [2]; […], read-out: PLpro activity after preincubation, inhibitor 0.5 uM, preincubation 15 min)?
A: 34.6%

Q: And the remaining activity at 0.5 µM (PLpro from SARS-CoV-2 [2]; […], read-out: PLpro activity after preincubation, inhibitor 0.5 uM, preincubation 45 min)?
A: 1.63%

Q: What about the remaining activity at 0.6 µM (PLpro from SARS-CoV-2 [2]; […], read-out: PLpro activity after preincubation, inhibitor 0.6 uM, preincubation 15 min) of the same compound?
A: 27.5%

Q: What about the remaining activity at 0.7 µM (PLpro from SARS-CoV-2 [2]; […], read-out: PLpro activity after preincubation, inhibitor 0.7 uM, preincubation 15 min) of the same compound?
A: 17.8%

Q: What about the “Time dep. (time-dependent inhibition)” value (PLpro from SARS-CoV-2 [2]) of the same compound?
A: Time-dependent inhibition was observed and Yes

Q: What about the “mean (kobs plot, Supplementary Figure 6 II)” value (“mean” below) (PLpro from SARS-CoV-2 [2]; inhibitor 0.20 uM) of the same compound?
A: 0.0069

Q: What about the “mean” value (PLpro from SARS-CoV-2 [2]; inhibitor 0.30 uM) of the same compound?
A: 0.0173

Q: And the “mean” value (PLpro from SARS-CoV-2 [2]; inhibitor 0.5 uM)?
A: 0.0760

Q: What about the “mean” value (PLpro from SARS-CoV-2 [2]; inhibitor 0.6 uM) of the same compound?
A: 0.0965

Q: What about the “mean” value (PLpro from SARS-CoV-2 [2]; inhibitor 0.7 uM) of the same compound?
A: 0.1287

Q: What about the “EC50 (cytopathic effect)” value [3] of the same compound?
A: No CPE

Q: And the “cytotoxicity, %cell viability” value (Vero E6 cells; 16.67 µM)?
A: 0.55%

Q: And the “cytotoxicity, %cell viability” value (Vero E6 cells; 33.33 µM)?
A: 0.51%

Q: And the CC50 at 48 h (in vitro; CC50)?
A: 1000 to 5000 nM

Q: What about the viability at 48 h, 8.33 µM (in vitro; cytotoxicity, %cell viability) of the same compound?
A: 0.83%

Q: What about the viability at 48 h, 16.67 µM (in vitro; cytotoxicity, %cell viability) of the same compound?
A: 0.57%

Q: And the viability at 48 h, 33.33 µM (in vitro; cytotoxicity, %cell viability)?
A: 1.02%

Q: What about the inhibition at […] ([4]; Severe acute respiratory syndrome coronavirus 2, Vero C1008, read-out: cytopathic effect, % cell viability) of the same compound?
A: 6.23%

Q: Which remaining activity at 0.06 µM (PLpro from SARS-CoV-2 [1]; 0.5 h) does the source give for `C[C@@H](NC(=O)c1ccccc1CCC(=O)NNC(=O)C(C#N)=CC1CC1)c1cccc2ccccc12` [Compound 13, (R)-2-(3-(2-(2-cyano-3-cyclopropylacryloyl)hydrazineyl)-3-oxopropyl)-N-(1-(naphthalen-1-yl)ethyl)benzamide] here?
A: 101%

Q: What about the remaining activity at 0.2 µM (PLpro from SARS-CoV-2 [1]; 0.5 h) of the same compound?
A: 107%

Q: What about the remaining activity at 6.34 µM (PLpro from SARS-CoV-2 [1]; 0.5 h, inhibitor 6.34 uM) of the same compound?
A: 109%

Q: What about the remaining activity at 20 µM (PLpro from SARS-CoV-2 [1]; 0.5 h, inhibitor 20.00 uM) of the same compound?
A: 90.5%

Q: And the IC50 (PLpro from SARS-CoV-2 [1])?
A: > 200000 nM

Q: What about the “Time dep. (time-dependent inhibition)” value (PLpro from SARS-CoV-2 [2]) of the same compound?
A: not and No

Q: What about the “EC50 (cytopathic effect)” value [3] of the same compound?
A: No CPE

Q: What about the “cytotoxicity, %cell viability” value (Vero E6 cells; 2.08 µM) of the same compound?
A: 72.90%

Q: And the “cytotoxicity, %cell viability” value (Vero E6 cells; 16.67 µM)?
A: 0.71%

Q: What about the viability at 48 h, 2.08 µM (in vitro; cytotoxicity, %cell viability) of the same compound?
A: 83.5%

Q: And the viability at 48 h, 16.67 µM (in vitro; cytotoxicity, %cell viability)?
A: 0.88%

Q: Which half-life [5] does the source give for `CC(C)NCC(O)COc1cccc2ccccc12` (centres unmarked) [propranolol, reference compound] here?
A: 3 min

Q: What about the half-life [6] of the same compound?
A: 3 min

Q: What about the half-life [7] of the same compound?
A: 20 min

Q: And the half-life [8]?
A: 6 min

Q: Which “% cell viability, cytopathic effect” value ([3]; 5.00 uM) does the source give for `CCC(CC)COC(=O)[C@H](C)N[P@](=O)(OC[C@H]1O[C@@](C#N)(c2ccc3c(N)ncnn23)[C@H](O)[C@@H]1O)Oc1ccccc1` [remdesivir, reference compound] here?
A: 97.274%

Q: And the “% cell viability, cytopathic effect” value ([3]; 10.00 uM)?
A: 97.073%

Q: And the inhibition ([3]; [inhibitor] 5.00 uM, 5 µM)?
A: 97.3%

Q: And the inhibition ([3]; [inhibitor] 10.00 uM, 10 µM)?
A: 97.1%

Q: What about the EC50 ([4]; Severe acute respiratory syndrome coronavirus 2, Vero C1008, 48 h, read-out: EC50 (cytopathic effect)) of the same compound?
A: 740 nM

Q: What about the viability at 5 µM ([4]; Severe acute respiratory syndrome coronavirus 2, Vero C1008, read-out: % cell viability, cytopathic effect, 5.00 uM) of the same compound?
A: 102%

Q: And the viability at 10 µM ([4]; Severe acute respiratory syndrome coronavirus 2, Vero C1008, read-out: % cell viability, cytopathic effect, 10.00 uM)?
A: 101%

Q: And the inhibition at 5 µM ([4]; Severe acute respiratory syndrome coronavirus 2, Vero C1008, read-out: cytopathic effect, % cell viability, [inhibitor] 5.00 uM, duplicate wells)?
A: 102%

Q: And the inhibition at 10 µM ([4]; Severe acute respiratory syndrome coronavirus 2, Vero C1008, read-out: cytopathic effect, % cell viability, [inhibitor] 10.00 uM, duplicate wells)?
A: 101%
